Molecules are shown by their SMILES.

Series [1] deals with leukaemia THP-1. The series can be described thus: In vitro cytotoxicity against human cancer cell lines (sulforhodamine B), leukaemia THP-1. The series is classed as cell-based. Particulars: 48 hours, read-out: % GROWTH INHIBITION leukaemia THP-1; for inhibition at 10 µM: 1 × 10^−5 M; for inhibition at 50 µM: 5 × 10^−5 M. Here is the method: (§1) The human cancer cell lines procured from National Cancer Institute, Frederick, U.S.A., were used in present study. Cells were grown in tissue culture flasks in complete growth medium (RPMI-1640 medium with 2 mM glutamine, 100 μg/mL streptomycin, pH 7.4, sterilized by filtration and supplemented with 10% fetal bovine serum and 100 units/ml penicillin before use) at 37 QC in an atmosphere of 5% CO2 and 90% relative humidity in a carbon dioxide incubator. The cells at subconfluent stage were harvested from the flask by treatment with trypsin (0.05% in PBS containing 0.02% EDTA) for determination of cytotoxicity. The cell suspension of the required cell density was prepared in complete growth medium with gentamycin (50 μg/mL) for determination of cytotoxicity.
(§2) Stock solutions of 2×10^−2M of test materials were prepared in DMSO. The stock solutions were serially diluted with complete growth medium containing 50 μg/ml of gentamycin to obtain working test solution of 2×10^−5M to obtain final concentration of 1×10^−5M respectively.
(§3) In vitro cytotoxicity against human cancer cell lines was determined (Monks et al., J. Natl. Cancer Inst. 1991, 83, 757-766). The 100 μL of cell suspension was added to each well of the 96-well tissue culture plate. The cells were incubated for 24 hours (at 37° C. in an atmosphere of 5% CO2 and 90% relative humidity in a carbon dioxide incubator). Test materials in complete growth medium (100 μL) were added after 24 hours incubation to the wells containing cells. The plates were further incubated for 48 hours in a carbon dioxide incubator after addition of test material. The cell growth was stopped by gently layering trichloroacetic acid (50 μL, 50% w/v) on top of the medium in all the wells. The plates were incubated at 4° C. for one hour to fix the cells attached to the bottom of the wells. The liquid of all the wells was then gently decanted and discarded. The plates were washed five times with distilled water and air-dried. Cell growth was measured by staining with sulforhodamine B dye (Skehan et al., J. Natl. Cancer Inst. 1990, 82, 1107-1112). The adsorbed dye was dissolved in Tris-Buffer (100 μL, 0.01M, pH 10.4) and plates were gently stirred for 10 minutes on a mechanical stirrer. The optical density (OD) was recorded on ELISA reader at 540 nm.
(§4) The cell growth was calculated by subtracting mean OD value of respective blank from the mean OD value of experimental set. Percent growth in presence of test material was calculated considering the growth in absence of any test material as 100% and in turn percent growth inhibition in presence of test material was calculated. Suitable blank, controls and positive controls were included in the study.

In series [2] the test system is colon HCT-15 human cancer cell line. The series can be described thus: In vitro cytotoxicity against human cancer cell lines (sulforhodamine B), colon HCT-15. The class given is cell-based. Particulars: 48 hours, read-out: % GROWTH INHIBITION colon HCT-15; for inhibition at 50 µM: 5 × 10^−5 M.
Series [3] has the same test system. The series is described as above. The series is classed as cell-based. Particulars: 1 × 10^−5 M, 48 hours, read-out: % GROWTH INHIBITION colon HCT-15. Here is the method: as §1, §2, §3, §4
The subject of series [4] is Lung cancer cell A-549. The series can be described thus: In vitro cytotoxicity against human cancer cell lines (sulforhodamine B), Lung A-549. The class given is cell-based. Particulars: 48 hours, read-out: % GROWTH INHIBITION Lung A-549; for inhibition at 10 µM: A549, 1 × 10^−5 M; for inhibition at 50 µM: A549, 5 × 10^−5 M. As to the method: as §1, §2, §3, §4
Series [5] relates to Ehrlich ascites tumor (EAT) cells. Particulars: MTT assay, read-out: IC50 (drug concentration causing 50% growth inhibition of the tumor cells); cited from earlier work. In general terms: Tetrazolium assays rely on reduction of a dye to a coloured formazan, in cell work by metabolically active cells.
The test system of series [6] is P388 leukemia. Particulars: NCI Report on NSC 369397; cited from earlier work.
The subject of series [7] is cell line panels consisting of 60 lines. Particulars: nine disease-related subpanels; cited from earlier work.
The subject of series [8] is CMV. Particulars: cited from earlier work.
Series [9] concerns human liver cell line of HEP-2 type. The series can be described thus: In vitro cytotoxicity against human cancer cell lines (sulforhodamine B), Liver HEP-2. The series is classed as cell-based. As to conditions: 1 × 10^−5 M, 48 hours. As to the method: as §1, with “The cell suspension of the required cell density was prepared in complete growth medium with gentamycin (50 μg/mL) for determination of cytotoxicity.” left out
In vitro cytotoxicity against human cancer cell lines was determined (Monks et al., J. Natl. Cancer Inst. 1991, 83, 757-766). […] Cell growth was measured by staining with sulforhodamine B dye (Skehan et al., J. Natl. Cancer Inst. 1990, 82, 1107-1112). […] The optical density (OD) was recorded on ELISA reader at 540 nm.
The cell growth was calculated by subtracting mean OD value of respective blank from the mean OD value of experimental set. Percent growth in presence of test material was calculated considering the growth in absence of any test material as 100% and in turn percent growth inhibition in presence of test material was calculated. […]

Series [10] has as its system CMV. Particulars: cited from earlier work. This is another data set of the same source.

In the case of `O=c1[nH]cc(F)c(=O)[nH]1` [5-Fluorouracil, reference compound], the inhibition at 20 µM in series [1] (2 × 10^−5 M) was found to be 73%; in series [2] (2 × 10^−5 M), 65%.

Regarding `C[C@@H]1CC[C@H]2[C@@H](C)C(=O)O[C@@H]3O[C@@]4(C)CC[C@@H]1[C@]32OO4` [Artemisinin, artemisinin], the inhibition at 10 µM in series [3] is 29%; in [4], 19%. The inhibition at 50 µM in series [4] amounted to 29%; in series [2], 31%. Besides, in series [5], the IC50 was 29.8 µM. Also, in [6], the “activity against P388 leukemia” value was “inactive”. In addition, the “anticancer activity in 60 cell line panel” value in series [7] is listed as “very little anticancer activity”. Also, the “anti-CMV activity, in words” value in series [8] (in-vitro) is “lower anti-CMV activity compared to artesunate”.

On to `C[C@H]1[C@H](OCc2cn(-c3ccc(-c4ccc(-n5cc(CO[C@@H]6O[C@@H]7O[C@@]8(C)CC[C@H]9[C@H](C)CC[C@@H]([C@H]6C)[C@@]79OO8)nn5)cc4)cc3)nn2)O[C@@H]2O[C@@]3(C)CC[C@H]4[C@H](C)CC[C@@H]1[C@@]24OO3` [Compound 12], for which the inhibition at 10 µM was determined as 75% in series [3], 56% in series [4] and 75% in series [1]. Further, the inhibition at 50 µM was 64% in [4], 80% in series [1] and 78% in series [2].

For `C[C@H]1[C@H](OCCc2cn(-c3ccc(-c4ccc(-n5cc(CCO[C@@H]6O[C@@H]7O[C@@]8(C)CC[C@H]9[C@H](C)CC[C@@H]([C@H]6C)[C@@]79OO8)nn5)cc4)cc3)nn2)O[C@@H]2O[C@@]3(C)CC[C@H]4[C@H](C)CC[C@@H]1[C@@]24OO3` [Compound 13], the inhibition at 10 µM was determined as 56% in [3], 41% in series [4] and 63% in series [1]. Moreover, the values for the inhibition at 50 µM in series [4], in series [1] and in series [2] were 46%, 82% and 66%, respectively.

For the compound `C[C@H]1[C@H](OCc2cn(C3O[C@@H]4O[C@@]5(C)CC[C@H]6[C@H](C)CC[C@@H]([C@H]3C)[C@@]46OO5)nn2)O[C@@H]2O[C@]3(C)CC[C@H]4[C@H](C)CC[C@@H]1[C@@]24OO3` (some centres unmarked) [Compound 14], the inhibition at 50 µM in series [4] turned out to be 22%; in series [1] it was 62%; in [2], 63%.

Turning to `C[C@H]1[C@H](OCCc2cn(C3O[C@@H]4O[C@@]5(C)CC[C@H]6[C@H](C)CC[C@@H]([C@H]3C)[C@@]46OO5)nn2)O[C@@H]2O[C@]3(C)CC[C@H]4[C@H](C)CC[C@@H]1[C@@]24OO3` (some centres unmarked) [Compound 15], the figures for the inhibition at 10 µM in series [3], in [4] and in series [1] were 66%, 29% and 78%, respectively. Moreover, the inhibition at 50 µM was 48% in series [4], 79% in series [1] and 70% in series [2].

Take `CO[C@@]12[C@H](COC(N)=O)C3=C(C(=O)C(C)=C(N)C3=O)N1C[C@@H]1N[C@@H]12` [Mitomycin-c]: in series [9], the “% GROWTH INHIBITION Liver HEP-2” value was 58%.

For `C[C@H]1[C@H](OC(=O)CCC(=O)O)O[C@@H]2O[C@@]3(C)CC[C@H]4[C@H](C)CC[C@@H]1[C@@]24OO3` [artesunate, sodium artesunate], the “in-vitro inhibition of clinical isolates” value in series [8] (11.1 μM) is 50-80%. Moreover, the cytotoxicity entry in series [8] (CMV replication study) is “no cytotoxicity”. Moreover, the “CMV replication in rat CMV model” value in series [10] is “inhibit CMV replication”.

Usually inhibition stands for how much of the control response was suppressed.

The values above are taken from patent publication US9006467B2, “1,2,3-triazole containing artemisinin compounds and process for preparation thereof” (Councel of Scientific & Industrial Research, priority 2011, dated 2015).
